Reference: ChEMBL document CHEMBL1141476, “Novel echinocandin antifungals. Part 1: novel side-chain analogs of the natural product FR901379” (Bioorg Med Chem Lett, 2008)
Converted amounts (≈) assume the structure as drawn. Starred links: 1 amine or outer side, 2 acyl side, 3 side chain; linkers in the order of their positions; H or OH if unused. Positions of bridges follow the written chain, without caps; N, C: chain ends. Non-standard residues stand in square brackets, D forms with d. Residues, ends and D or L forms follow the SMILES beside them. *: point of attachment. hTyr(3S-OH,4S-OH,3'-OSO3H) = N[C@H](C(=O)O)[C@H](O)[C@@H](O)c1ccc(O)c(OS(=O)(=O)O)c1; Orn(4R-OH,5R-OH) = O=C([C@H](C[C@@H](O)[C@@H](O)N[*:3])N[*:1])[*:2]; Orn(4R-OH,5S-OH) = O=C([C@H](C[C@@H](O)[C@H](O)N[*:3])N[*:1])[*:2]; Pro(3S-OH,4S-Me) = C[C@H]1CN[C@H](C(=O)O)[C@H]1O; X1 = CCCCOc1ccc(-c2ccc(-c3ccc(C(=O)*)cc3)cc2)cc1; Benzoyl(4-octyloxy) = CCCCCCCCOc1ccc(C(=O)*)cc1; Gln(3R-OH) = NC(=O)C[C@@H](O)[C@H](N)C(=O)O; Hyp = O=C(O)[C@@H]1C[C@@H](O)CN1

Legend:
[1] = Effect on hemolysis in red blood cells; assay type: ADME, cell-based, Erythrocyte
Aspergillus fumigatus [2] = assay: Antifungal activity against Aspergillus fumigatus FP1305; assay type: functional, organism-based
Candida albicans [3] = assay: Antifungal activity against Candida albicans FP633 in in vivo model; assay type: functional
Candida albicans [4] = assay: Antifungal activity against Candida albicans FP633; assay type: functional
Aspergillus fumigatus [5] = assay: Antifungal activity against Aspergillus fumigatus 8004 in in vivo model; assay type: functional

SMILES	LC30 [1] [µg/mL]	IC50 (Aspergillus fumigatus [2]) [µg/mL]	ED50 (Candida albicans [3]) [mg/kg]	MIC (Candida albicans [4]) [µg/mL]	ED50 (Aspergillus fumigatus [5]) [mg/kg]
CCCCCCCCOc1ccc2cc(C(=O)N[C@@H]3C[C@@H](O)[C@@H](O)NC(=O)[C@@H]4[C@@H](O)[C@@H](C)CN4C(=O)[C@H]([C@H](O)CC(N)=O)NC(=O)[C@H]([C@H](O)[C@@H](O)c4ccc(O)c(OS(=O)(=O)[O-])c4)NC(=O)[C@@H]4C[C@@H](O)CN4C(=O)C([C@@H](C)O)NC3=O)ccc2c1.[Na+] (stereo not given in full)	> 10000	0.003	0.46	0.1	0.79
CCCCCCCCCCOc1ccc2cc(C(=O)N[C@@H]3C[C@@H](O)[C@@H](O)NC(=O)[C@@H]4[C@@H](O)[C@@H](C)CN4C(=O)[C@H]([C@H](O)CC(N)=O)NC(=O)[C@H]([C@H](O)[C@@H](O)c4ccc(O)c(OS(=O)(=O)[O-])c4)NC(=O)[C@@H]4C[C@@H](O)CN4C(=O)C([C@@H](C)O)NC3=O)ccc2c1.[Na+] (stereo not given in full)	750	0.015		0.2	
CCCCCCCOc1ccc(-c2ccc(C(=O)N[C@@H]3C[C@@H](O)[C@@H](O)NC(=O)[C@@H]4[C@@H](O)[C@@H](C)CN4C(=O)[C@H]([C@H](O)CC(N)=O)NC(=O)[C@H]([C@H](O)[C@@H](O)c4ccc(O)c(OS(=O)(=O)[O-])c4)NC(=O)[C@@H]4C[C@@H](O)CN4C(=O)C([C@@H](C)O)NC3=O)cc2)cc1.[Na+] (stereo not given in full)	910	0.002		0.1	
CCCCCCOc1ccc2cc(C(=O)N[C@@H]3C[C@@H](O)[C@@H](O)NC(=O)[C@@H]4[C@@H](O)[C@@H](C)CN4C(=O)[C@H]([C@H](O)CC(N)=O)NC(=O)[C@H]([C@H](O)[C@@H](O)c4ccc(O)c(OS(=O)(=O)[O-])c4)NC(=O)[C@@H]4C[C@@H](O)CN4C(=O)C([C@@H](C)O)NC3=O)ccc2c1.[Na+] (stereo not given in full)	> 10000	0.025		0.78	
CCCCCCCCCCCCOc1ccc2cc(C(=O)N[C@@H]3C[C@@H](O)[C@@H](O)NC(=O)[C@@H]4[C@@H](O)[C@@H](C)CN4C(=O)[C@H]([C@H](O)CC(N)=O)NC(=O)[C@H]([C@H](O)[C@@H](O)c4ccc(O)c(OS(=O)(=O)[O-])c4)NC(=O)[C@@H]4C[C@@H](O)CN4C(=O)C([C@@H](C)O)NC3=O)ccc2c1.[Na+] (stereo not given in full)	410			0.78	
CCCCCCCCOc1ccc(/C=C/C(=O)N[C@@H]2C[C@@H](O)[C@@H](O)NC(=O)[C@@H]3[C@@H](O)[C@@H](C)CN3C(=O)[C@H]([C@H](O)CC(N)=O)NC(=O)[C@H]([C@H](O)[C@@H](O)c3ccc(O)c(OS(=O)(=O)[O-])c3)NC(=O)[C@@H]3C[C@@H](O)CN3C(=O)C([C@@H](C)O)NC2=O)cc1.[Na+] (stereo not given in full)	> 10000			0.78	
CCCCCOc1ccc(-c2ccc(/C=C/C(=O)N[C@@H]3C[C@@H](O)[C@@H](O)NC(=O)[C@@H]4[C@@H](O)[C@@H](C)CN4C(=O)[C@H]([C@H](O)CC(N)=O)NC(=O)[C@H]([C@H](O)[C@@H](O)c4ccc(O)c(OS(=O)(=O)[O-])c4)NC(=O)[C@@H]4C[C@@H](O)CN4C(=O)C([C@@H](C)O)NC3=O)cc2)cc1.[Na+] (stereo not given in full)	3950	0.002		0.05	
CCCCCCCOc1ccc2cc(C(=O)N[C@@H]3C[C@@H](O)[C@@H](O)NC(=O)[C@@H]4[C@@H](O)[C@@H](C)CN4C(=O)[C@H]([C@H](O)CC(N)=O)NC(=O)[C@H]([C@H](O)[C@@H](O)c4ccc(O)c(OS(=O)(=O)[O-])c4)NC(=O)[C@@H]4C[C@@H](O)CN4C(=O)C([C@@H](C)O)NC3=O)ccc2c1.[Na+] (stereo not given in full)	> 10000	0.004		0.39	
CCCCCCCCCCOc1ccc(C(=O)N[C@@H]2C[C@@H](O)[C@@H](O)NC(=O)[C@@H]3[C@@H](O)[C@@H](C)CN3C(=O)[C@H]([C@H](O)CC(N)=O)NC(=O)[C@H]([C@H](O)[C@@H](O)c3ccc(O)c(OS(=O)(=O)[O-])c3)NC(=O)[C@@H]3C[C@@H](O)CN3C(=O)C([C@@H](C)O)NC2=O)cc1.[Na+] (stereo not given in full)	10000	0.005		0.2	
CCCCOc1ccc(-c2ccc(-c3ccc(C(=O)N[C@H]4C[C@@H](O)[C@@H](O)NC(=O)[C@@H]5[C@@H](O)[C@@H](C)CN5C(=O)[C@H]([C@H](O)CC(N)=O)NC(=O)[C@H]([C@H](O)[C@@H](O)c5ccc(O)c(OS(=O)(=O)O)c5)NC(=O)[C@@H]5C[C@@H](O)CN5C(=O)[C@H]([C@@H](C)O)NC4=O)cc3)cc2)cc1 (X1-[Orn(4R-OH,5R-OH)]T[Hyp][hTyr(3S-OH,4S-OH,3'-OSO3H)][Gln(3R-OH)][Pro(3S-OH,4S-Me)]; lactam 1-C) [listing 1 of 2 here]	370 (≈ 292000 nM)	0.002 (≈ 1.58 nM)			
CCCCOc1ccc(-c2ccc(-c3ccc(C(=O)N[C@H]4C[C@@H](O)[C@@H](O)NC(=O)[C@@H]5[C@@H](O)[C@@H](C)CN5C(=O)[C@H]([C@H](O)CC(N)=O)NC(=O)[C@H]([C@H](O)[C@@H](O)c5ccc(O)c(OS(=O)(=O)O)c5)NC(=O)[C@@H]5C[C@@H](O)CN5C(=O)[C@H]([C@@H](C)O)NC4=O)cc3)cc2)cc1 (X1-[Orn(4R-OH,5R-OH)]T[Hyp][hTyr(3S-OH,4S-OH,3'-OSO3H)][Gln(3R-OH)][Pro(3S-OH,4S-Me)]; lactam 1-C) [listing 2 of 2 here]				0.0125 (≈ 9.88 nM)	
CCCCCCCCOc1ccc(C(=O)N[C@H]2C[C@@H](O)[C@H](O)NC(=O)[C@@H]3[C@@H](O)[C@@H](C)CN3C(=O)[C@H]([C@H](O)CC(N)=O)NC(=O)[C@H]([C@H](O)[C@@H](O)c3ccc(O)c(OS(=O)(=O)[O-])c3)NC(=O)[C@@H]3C[C@@H](O)CN3C(=O)[C@H]([C@@H](C)O)NC2=O)cc1.[Na+] [FR-131535] ({Benzoyl(4-octyloxy)}-[Orn(4R-OH,5S-OH)]T[Hyp][hTyr(3S-OH,4S-OH,3'-OSO3H)][Gln(3R-OH)][Pro(3S-OH,4S-Me)]; lactam 1-C)	> 10000	0.015	3.71	0.78	4.31
